Measurements reported in patent publication US20160287565A1, “COMBINATION THERAPY FOR TREATING DISORDERS ASSOCIATED WITH EXCESS CORTISOL PRODUCTION” (Millendo Therapeutics, Inc., priority 2015, published 2016).

Legend:
Dogs = assay: ATR-101 in dogs, serum steroid and steroid precursor levels by LC-MS/MS pre- and post-ACTH stimulation; assay type: in vivo, dog; conditions: 3 mg/kg daily 7 days then 30 mg/kg 7 days, oral gavage
Procedure: Changes in steroid and steroid intermediate levels are shown as % reduction as compared to maximum level as measured on Day 0. *Day 1 data used for maximum steroid level. **Day 3 data used for maximum steroid level.
Dogs were administered daily doses of 3 mg/kg of ATR-101 for 7 days by oral gavage, and then 30 mg/kg for 7 days by oral gavage. Blood was collected on day 14 to measure basal steroid and steroid precursor serum levels (pre-ACTH stimulation) and steroid/steroid precursor levels post-ACTH stimulation by LC-MS/MS. For ACTH stimulation, 5 μg/kg (not to exceed 250 μg) of CORTROSYN™ (also known as cosyntropin or synthetic ACTH) was administered via bolus i.v. administration, and blood samples were collected 1 hour post-CORTROSYN™ administration. Changes in steroid and steroid precursor levels are shown as % reduction as compared to maximum level as measured on Day 0, except as noted (see, FIG. 2; *Day 1 data used for maximum steroid level; **Day 3 data used for maximum steroid level).

[1] = tested on: human adult patients with Cushing's disease; conditions: cited from earlier work
[2] = tested on: human, adult patients with Cushing's disease; conditions: cited from earlier work

Compound	synthesis of steroids and steroid precursors produced in the adrenal cortex (Dogs; day 14, FIG. 4)	11-deoxycorticosterone level (Dogs; day 14 serum)	11-deoxycortisol level (Dogs; day 14 serum)	testosterone level (Dogs; day 14 serum)	secretion of ACTH ([1]; during LCI699 treatment (day 70) vs day 1, FIG. 2A)	testosterone levels (in females) ([1]; during LCI699 treatment (day 70), 8 females, FIG. 2C)	11-deoxycortisol level ([1]; during LCI699 treatment (day 70), FIG. 2B)	11-deoxycorticosterone levels ([1]; during LCI699 treatment (day 70), FIG. 2D)	serum cortisol ([1]; during LCI699 treatment (day 70), up to 100 mg/day b.i.d., n=12)	females developing acne ([2]; 22-week treatment course)	females developing hirsutism ([2]; 22-week treatment course)	females with elevated testosterone who developed adverse symptoms of androgen excess ([2]; 22-week treatment course)	women with above normal testosterone levels during the treatment course ([2]; of the 12 women who completed 22 weeks, normal range 2-45 ng/dL, 4-60 mg/day)
CC(C)c1cccc(C(C)C)c1NC(=O)NCC1(c2ccc(N(C)C)cc2)CCCC1 [ATR-101, N-(2,6-bis(1-methylethyl)-phenyl)-N′-((1-(4-(dimethylamino)phenyl)cyclopentyl)-methyl)urea]	broad inhibitory effects	decreased	decreased	decreased	–	–	–	–	–	–	–	–	–
N#Cc1ccc([C@H]2CCc3cncn32)c(F)c1 [osilodrostat]	–	–	–	–	increased secretion of ACTH	increased	build-up	increased	decrease in serum cortisol	three	two	Four	9
